Source: PubChem BioAssay AID2060509 (Molecular Pharmacology Branch, DTP, NCI, 2025)

Test system: 485176-168-R4-J1-PDC spheroids with HUVEC/MSC, viability
Assay: Anticancer human tumor 485176-168-R4-J1-PDC patient-derived pancreatic adenocarcinoma cell line growth inhibition [GQUAD]
Conditions: for IC50: curve of first compound; for viability, T/C: stronger effect = lower value
How it was run: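 Multi-cell-type spheroids of tumor cells with HUVEC and mesenchymal stem cells, treated with drug combinations. Concentrations descend in half-log steps from near clinical Cmax, or from 10 microM where Cmax is unknown; viability read-out.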

[1] = second compound 0.0316 µM, first compound 0.0316 µM
[2] = second compound 0.0316 µM, first compound 0.316 µM
[3] = second compound 0.1 µM, first compound 0.0316 µM
[4] = second compound 0.1 µM, first compound 0.316 µM
[5] = second compound 0.316 µM, first compound 0.0316 µM
[6] = second compound 0.316 µM, first compound 0.316 µM
[7] = second compound 1 µM, first compound 0.0316 µM
[8] = second compound 1 µM, first compound 0.316 µM
[9] = second compound 3.16 µM, first compound 0.0316 µM
[10] = second compound 3.16 µM, first compound 0.316 µM
[11] = second compound 10 µM, first compound 0.0316 µM
[12] = second compound 10 µM, first compound 0.316 µM
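Also: spheroids exposed to compounds for seven days before readout.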
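For viability, T/C in this document: percent viability relative to DMSO vehicle control wells as 100%.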

SMILES: C=CC(=O)N1CCN(c2nc(=O)n(-c3c(C)ccnc3C(C)C)c3nc(-c4c(O)cccc4F)c(F)cc23)C(C)C1 (centres undefined) + Cc1cnc(CNC(=O)c2c(=O)c3ccc(N4CCCN(C)CC4)nc3n3c2sc2ccccc23)cn1
- IC50 (second compound 0.0316 µM): > 10000 nM
- IC50 (second compound 0.1 µM): > 10000 nM
- IC50 (second compound 0.316 µM): > 10000 nM
- IC50 (second compound 1 µM): > 10000 nM
- IC50 (second compound 3.16 µM): < 31.6 nM
- IC50 (second compound 10 µM): < 31.6 nM
- viability, T/C [1]: 108%
- viability, T/C (second compound 0.0316 µM, first compound 0.1 µM): 97.2%
- viability, T/C [2]: 111%
- viability, T/C (second compound 0.0316 µM, first compound 1 µM): 97.7%
- viability, T/C (second compound 0.0316 µM, first compound 3.16 µM): 114%
- viability, T/C (second compound 0.0316 µM, first compound 10 µM): 110%
- viability, T/C [3]: 67.5%
- viability, T/C (second compound 0.1 µM, first compound 0.1 µM): 81.6%
- viability, T/C [4]: 86.7%
- viability, T/C (second compound 0.1 µM, first compound 1 µM): 92.4%
- viability, T/C (second compound 0.1 µM, first compound 3.16 µM): 96.4%
- viability, T/C (second compound 0.1 µM, first compound 10 µM): 92.5%
- viability, T/C [5]: 63.8%
- viability, T/C (second compound 0.316 µM, first compound 0.1 µM): 62.5%
- viability, T/C [6]: 83.7%
- viability, T/C (second compound 0.316 µM, first compound 1 µM): 72.1%
- viability, T/C (second compound 0.316 µM, first compound 3.16 µM): 81.6%
- viability, T/C (second compound 0.316 µM, first compound 10 µM): 79.3%
- viability, T/C [7]: 58%
- viability, T/C (second compound 1 µM, first compound 0.1 µM): 62.1%
- viability, T/C [8]: 80.1%
- viability, T/C (second compound 1 µM, first compound 1 µM): 52.2%
- viability, T/C (second compound 1 µM, first compound 3.16 µM): 61.1%
- viability, T/C (second compound 1 µM, first compound 10 µM): 60.7%
- viability, T/C [9]: 49%
- viability, T/C (second compound 3.16 µM, first compound 0.1 µM): 45.7%
- viability, T/C [10]: 46.9%
- viability, T/C (second compound 3.16 µM, first compound 1 µM): 50.1%
- viability, T/C (second compound 3.16 µM, first compound 3.16 µM): 54.6%
- viability, T/C (second compound 3.16 µM, first compound 10 µM): 49.5%
- viability, T/C [11]: 43.6%
- viability, T/C (second compound 10 µM, first compound 0.1 µM): 47.7%
- viability, T/C [12]: 51%
- viability, T/C (second compound 10 µM, first compound 1 µM): 43.7%
- viability, T/C (second compound 10 µM, first compound 3.16 µM): 49%
- viability, T/C (second compound 10 µM, first compound 10 µM): 50.3%

SMILES: CCc1c2c(nc3ccc(O)cc13)-c1cc3c(c(=O)n1C2)COC(=O)[C@]3(O)CC + Cc1cnc(CNC(=O)c2c(=O)c3ccc(N4CCCN(C)CC4)nc3n3c2sc2ccccc23)cn1
- IC50 (second compound 0.0316 µM): 3.5 nM
- IC50 (second compound 0.1 µM): 1.5 nM
- IC50 (second compound 0.316 µM): 1.67 nM
- IC50 (second compound 1 µM): < 0.999 nM
- IC50 (second compound 3.16 µM): < 0.999 nM
- IC50 (second compound 10 µM): < 0.999 nM
- viability, T/C (second compound 0.0316 µM, first compound 0.000999 µM): 79.5%
- viability, T/C (second compound 0.0316 µM, first compound 0.00316 µM): 47.6%
- viability, T/C (second compound 0.0316 µM, first compound 0.00999 µM): 36%
- viability, T/C [1]: 19.6%
- viability, T/C (second compound 0.0316 µM, first compound 0.0999 µM): 12.6%
- viability, T/C [2]: 4.96%
- viability, T/C (second compound 0.1 µM, first compound 0.000999 µM): 54.7%
- viability, T/C (second compound 0.1 µM, first compound 0.00316 µM): 42.7%
- viability, T/C (second compound 0.1 µM, first compound 0.00999 µM): 26.6%
- viability, T/C [3]: 21.9%
- viability, T/C (second compound 0.1 µM, first compound 0.0999 µM): 11.4%
- viability, T/C [4]: 4.78%
- viability, T/C (second compound 0.316 µM, first compound 0.000999 µM): 53%
- viability, T/C (second compound 0.316 µM, first compound 0.00316 µM): 47%
- viability, T/C (second compound 0.316 µM, first compound 0.00999 µM): 30.9%
- viability, T/C [5]: 19.5%
- viability, T/C (second compound 0.316 µM, first compound 0.0999 µM): 10.7%
- viability, T/C [6]: 5.12%
- viability, T/C (second compound 1 µM, first compound 0.000999 µM): 40.2%
- viability, T/C (second compound 1 µM, first compound 0.00316 µM): 38.9%
- viability, T/C (second compound 1 µM, first compound 0.00999 µM): 33.2%
- viability, T/C [7]: 20%
- viability, T/C (second compound 1 µM, first compound 0.0999 µM): 11.9%
- viability, T/C [8]: 5.51%
- viability, T/C (second compound 3.16 µM, first compound 0.000999 µM): 42.6%
- viability, T/C (second compound 3.16 µM, first compound 0.00316 µM): 35%
- viability, T/C (second compound 3.16 µM, first compound 0.00999 µM): 27.3%
- viability, T/C [9]: 22.1%
- viability, T/C (second compound 3.16 µM, first compound 0.0999 µM): 11.1%
- viability, T/C [10]: 6.82%
- viability, T/C (second compound 10 µM, first compound 0.000999 µM): 33.8%
- viability, T/C (second compound 10 µM, first compound 0.00316 µM): 29.4%
- viability, T/C (second compound 10 µM, first compound 0.00999 µM): 25.1%
- viability, T/C [11]: 19.9%
- viability, T/C (second compound 10 µM, first compound 0.0999 µM): 5.56%
- viability, T/C [12]: 0.25%
